From patent US20220160751A1, “METHODS OF TREATMENT OF DISEASES AND DISORDERS ASSOCIATED WITH INCREASED TET LEVEL, INCREASED H19 LEVEL, INCREASED LEVEL OF TGF SIGNALING, OR ANY COMBINATION THEREOF” (YALE UNIVERSITY, priority 2019, published 2022)
Entries after “also recorded” stand apart in the source; their conditions may differ.

Legend:
Assay type in all cases: cell-based
primary human HSCs = test: qPCR of key pathway genes in primary human HSCs; conditions: TGF-β1 2 ng/mL vs vehicle, 24 h
Protocol: (§1) Total RNA was extracted from cultured cells or liver tissue samples using PureLink RNA Mini Kit (Ambion, 12183018A). 0.8 μg of total RNA was reverse transcribed to cDNA in a reaction volume of 10 μl using PrimeScript RT Reagent Kit (TAKARA, RR037A). Quantitative real-time PCR reactions were carried out using iQSYBRGreen (Bio-Rad) in a Bio-Rad iCycler. Gene expression levels were normalized against housekeeping genes HPRT1 and RPLP0.

[1] = test system: LX-2 human hepatic stellate cells; test: qPCR and immunoblotting of gene expression in LX-2 cells; conditions: TGF-β1 5 ng/mL vs vehicle, 24 h
Protocol: LX-2 human hepatic stellate cells (Yale Liver Center) were maintained in DMEM (Gibco, 11965-092) supplemented with 10% heat-inactivated fetal bovine serum (Gibco, 26140-079) and 1% PS (penicillin and streptomycin) at 37° C. in 5% humidified CO2 tissue culture incubator. Generally, cells were plated and transfected in a 24-well plate scale. For transfection with siRNA, let-7, or iLet7, 10 pmol of siTET3 (or siCon), let-7 (or miCon), or iLet7 (iCon) were mixed with 25 μl of OPTI-MEM (Gibco, 31985-070) by gentle pipetting. In parallel, 1 μl of Lipofectamine 3000 (ThermoFisher Scientific, L3000015) was mixed with 25 μl of OPTI-MEM. Then, the contents from the two tubes were mixed by gentle pipetting. After incubation for 5 min at RT, the resulting 50 μl solution was used to resuspend cell pellet (5×10^4 cells). After incubation at RT for 10 min, 450 μl of growth medium was added and the cell suspension was transferred into one well of a 24-well plate. For transfection with TET3-expression plasmid pTET3 (pcDNA-Flag-Tet3, Addgene plasmid #60940, (30)) or control vector, 5×10^4 cells per well were seeded in a 24-well plate the night before transfection. The next day, 0.75 μg of pTET3 (or Vec) were mixed with 1 μl of P3000 in 25 μl of OPTI-MEM by gentle pipetting. In parallel, 0.5 μl of Lipofectamine 3000 were mixed with 25 μl of OPTI-MEM. The contents from the two tubes were combined by gentle pipetting and incubated for 5 min at RT. The resulting 50 μl of transfection solution was added to each well of cells seeded in a 24-well plate the night before and from which the growth medium had been removed. After 6 h of incubation in a tissue culture incubator, 500 μl of growth medium were added to each well of cells. For TGF-β1 (Sigma, USA) treatment experiments, transfected cells were incubated in 500 μl of serum-free DMEM containing 5 ng/mL TGF-β1 (diluted with HCl) or HCl (as control) for 24 h or 48 h as indicated.
as §1
For liver tissue samples, 5-10 mg of tissues were homogenized by sonication (Qsonica, Model Q125) in 150 μl of 2×SDS-sample buffer. Samples were immediately heated at 100° C. for 3 min with occasional vertexing. Then, 100 μl of 2×SDS-sample buffer was added to each sample and the 250 μl of tissue lysate were further homogenized by sonication and heated again at 100° C. for 3-5 min with vertexing once every 15 sec. Samples (further diluted at 1:1 with 2×SDS-sample buffer before loading) were loaded 5-10 μl per well onto a 4-15% gradient SDS gel, followed by Western blot analysis. Image J was used to quantify the protein bands.

[2] = test system: mouse primary hepatocytes; test: qPCR and immunoblotting of gene expression in mouse primary hepatocytes
Protocol: (§2) Mouse primary hepatocytes were prepared as previously described (Zhang N et al., 2018, JCI Insight 3:e120304). Cells were maintained in Williams' Medium (GIBCO, 12551) with 5% FBS, 1% 1 M HEPES buffer (GIBCO, 15630-080), 1% L-Glutamine (GIBCO, 25030-081), 1% SPA (GIBCO, 15240-062), 4 mg/L insulin (GIBCO, 12585-014) and 1 μM dexamethasone (Sigma, D4902). For TET3 overexpression experiments, freshly isolated mouse primary hepatocytes were seeded in 12-well collagen 1-coated plates (BD Biosciences Discovery Labware) at 4×10^5 cells/well and infected with Ad-GFP or Ad-TET3 at 4,000 gc/cell at 3 h after seeding. For TET3 or HNF4α P2 isoform knockdown experiments, cells seeded in 12-well plates were infected with AAV-scr, AAV-siTET3, or AAV-siP2 at 6,000 gc/cell at 3 h after seeding. Medium was changed the next day and glucagon was added at a final concentration of 20 nM. Glucose production assays were carried out at 60 h after infection. Human primary hepatocytes (M00995, Millipore, Sigma) were purchased, thawed, and maintained in InVitroGRO™ CP Medium (Sigma-Aldrich, Z990003) containing 2% Torpedo™ Antibiotic Mix. The cells were seeded in 12-well plates coated with collagen 1 (Millipore, 08-115). Infection of AAV-scr, AAV-sihTET3, and AAV-sihP2 were performed the next day after cell thawing and followed the same dosing protocol for the mouse primary hepatocytes.
Total RNAs were extracted from liver or pancreas tissues or from primary hepatocytes using PureLink RNA Mini Kit. cDNA was synthesized using PrimeScript RT Reagent Kit in a 20 μl reaction containing 0.5-1 μg of total RNA. Real-time quantitative PCR was performed in a 15 μl reaction containing 0.5-1 μl of cDNA using iQSYBRGreen in a Bio-Rad iCycler. PCR was performed by initial denaturation at 95° C. for 5 min, followed by 40 cycles of 30 sec at 95° C., 30 sec at 60° C., and 30 sec at 72° C. Specificity was verified by melting curve analysis. The Ct values of each sample were used in the post-PCR data analysis. Gene expression levels were normalized against house-keeping genes GAPDH and RPLP0.
Primary hepatocytes in 12-well plates were dissociated with 0.25% trypsin. After […] centrifugation at 1000 rpm for 5 min, supernatants were discarded and cell pallets were homogenized in 2×SDS-sample buffer (100 ul/well), followed by heating at 100° C. for 5 min, with occasional vortexing. For liver tissue samples, 5 mg of tissues were minced and 200 μl of 2× SDSsample buffer was added, followed by homogenization on ice using a sonicator (Qsonica, Q125-110). Homogenized samples were heated at 100° C. for 5 min and then centrifuged at 12,000 g for 5 min to remove insoluble materials before loading onto 12% SDS gels (5 μl/well), followed by Western blot analysis. Bands on Western blot gels were quantified using ImageJ. GAPDH was used as a loading control.

[3] = test system: primary human hepatocytes; test: qPCR of gene expression in primary human hepatocytes; conditions: glucagon 20 nM vs vehicle
Protocol: as §2, with “Human primary hepatocytes (M00995, Millipore, Sigma) were purchased, thawed, and maintained in InVitroGRO™ CP Medium (Sigma-Aldrich, Z990003) containing 2% Torpedo™ Antibiotic Mix. The cells were seeded in 12-well plates coated with collagen 1 (Millipore, 08-115). Infection of AAV-scr, AAV-sihTET3, and AAV-sihP2 were performed the next day after cell thawing and followed the same dosing protocol for the mouse primary hepatocytes.” left out
Total RNAs were extracted from liver or pancreas tissues or from primary hepatocytes using PureLink RNA Mini Kit. cDNA was synthesized using PrimeScript RT Reagent Kit in a 20 μl reaction containing 0.5-1 μg of total RNA. Real-time quantitative PCR was performed in a 15 μl reaction containing 0.5-1 μl of cDNA using iQSYBRGreen in a Bio-Rad iCycler. […]

[4] = test system: Hnf4a P2 and P1 promoters; test: ChIP-qPCR and QMSP of Hnf4a promoters in mouse hepatocytes
Protocol: Genomic DNA was extracted from mouse primary hepatocytes grown in 12-well plates using Quick-gDNA MicroPrep (Zymo Research Corporation, D3021) according to the manufacturer's instructions. For bisulfite treatment, 480 ng of DNA was used for each column using EZ DNA Methylation-Gold Kit (Zymo, D5006). 100 μl of elution buffer was used to elute DNA from each column. Real-time quantitative PCR was performed in a 15 μl reaction containing 5 μl of the eluted DNA using iQSYBRGreen in a Bio-Rad iCycler. Two sets of PCR primers were designed: one for unmethylated and one for methylated DNA sequences. The PCR primers for methylated DNA were used at a final concentration of 0.6 μM in each PCR reaction. PCR was performed by initial denaturation at 95° C. for 5 min, followed by 40 cycles of 30 sec at 95° C., 30 sec at 60° C., and 30 sec at 72° C. Specificity was verified by melting curve analysis. The threshold cycle (Ct) values of each sample were used in the post-PCR data analysis. The ratio of methylated versus unmethylated DNA sequences are presented.
Experiments were performed in a 12-well plate scale using the Pierce Agarose ChIP Kit (Thermo Scientific, 26156) according to the manufacturer's instructions with minor modifications. Briefly, agarose beads were used to pre-bind with antibodies (anti-TET3, anti-Ser-5(P)-RNAP, or pre-immune IgGs as negative controls) overnight at 4° C. The next day, hepatocytes were crosslinked with 1% formaldehyde at room temperature for 10 min, and the reaction was stopped by 1×glycine. ChIPs were carried out overnight at 4° C. Levels of ChIP-purified DNA were determined with qPCR (see Table 1 for primer sequences). The relative enrichments of the indicated DNA regions were calculated using the Percent Input Method according to the manufacturer's instructions and are presented as % input.

[5] = glucagon-stimulated versus vehicle treated hepatocytes

Substance | expression of TET2 and TET1 (primary human HSCs) | expression of TET3, TGFB1, TSP1, TGFBR2, FN1, and COL1A1 (primary human HSCs) | LIN28B expression [1] | SMAD3 phosphorylation (with expression of α-SMA, COL1A1, FN1 and TIMP1) [1] | TET3 expression (mRNA and protein) [1] | expression of TGF-β1, TSP1, and TGFBR2 [1] | let-7a and let-7b expression [1] | HNF4α P2 usage (qPCR) ([2]; H19 KO hepatocytes, glucagon 20 nM 24 h) | Tet3 expression (qPCR) ([2]; H19 KO primary hepatocytes, glucagon 20 nM 24 h) | Pck1 and G6pc expression (qPCR) ([2]; WT hepatocytes, glucagon 20 nM vs vehicle) | HNF4α P2 and P1 isoform expression (qPCR) ([2]; WT primary hepatocytes) | H19 and Tet3 expression (qPCR) ([2]; WT primary hepatocytes, glucagon 20 nM 24 h or AAV-H19 48 h without glucagon) | HNF4α expression from P2 and P1 [3] | expression of PCK1 and G6PC [3] | binding of TET3 to Hnf4a promoters (ChIP-qPCR) ([4]; glucagon 20 nM 24 h vs vehicle) | methylation of P2 (QMSP) ([4]; glucagon 20 nM 24 h vs vehicle) | RNAP association with P1 (ChIP) [4, 5] | enrichment in RNAP at the P2 promoter (ChIP) [4, 5]
TGF-β1: TGF-β1 (Sigma) used to stimulate LX-2 cells and primary human HSCs | decreased expression of TET2 and TET1 | increased expression of TET3, TGFB1, TSP1, TGFBR2, FN1, and COL1A1 | stimulated expression of LIN28B | concomitant increase in SMAD3 phosphorylation; also recorded: increased Smad3 phosphorylation | upregulated TET3; also recorded: increased expression of TET3 | also increased | decreased expression of let-7a and let-7b |  |  |  |  |  |  |  |  |  |  | 
glucagon |  |  |  |  |  |  |  | failed to do so | no longer stimulated Tet3 expression | increased expression of Pck1 and G6pc | increased P2 usage in WT hepatocytes | readily induced | stimulated expression from P2 (but not P1) | increased expression of PCK1 and G6PC | dramatically increased binding of TET3 to P2 but not P1 | significantly decreased methylation of P2 | no change in RNAP association with P1 | approximately 5 fold
